ChEMBL document CHEMBL6182894, “Design, synthesis, and biological evaluation of quinolinyl-ureido-phenyl-hydrazide derivatives and quinolinyl-hydrazide derivatives as anticancer agents targeting Nur77-mediated ferroptosis” (Eur J Med Chem, 2025)
pIC50: −log10 of the molar value. The source made the active and inactive calls. The calls are words filed in the database; no cut-off is given here.

Experiments:
[1] = Half life in nude BALB/c mouse at 20 mg/kg, IG measured after 24 hrs; format: ADME, organism-based; conditions: in vivo, po
MCF7 [2] = experiment: Antitumor activity against human MCF7 cells xenografted in nude BALB/c mouse assessed as decrease in GPX4 level in tumor at 10 to 20 mg/kg/day, IG administered on alternative days for 21 days by immunohistochemical analysis; format: functional, organism-based; conditions: dose 10-20 mg/kg/day, time 21.0 day
MCF7 [3] = experiment: Induction of ferroptosis in Nur77 knockout human MCF7 cells assessed as […] at 3 uM incubated for 24 hrs by BODIPYTM 581/591C11 probe based flow cytometry analysis; format: functional, cell-based
MCF7 [4] = experiment: Inhibition of colony formation in human MCF7 cells at 4.5 uM incubated for 3 days by crystal violet staining based analysis relative to control; format: functional; conditions: MCF7, 72 h, time 3 day
MCF7 [5] = experiment: Anticancer activity in human MCF7 cells assessed as cell viability at 3 uM in presence of DFO by MTT assay; format: functional, cell-based
[6] = Cytotoxicity in human MCF-10A cells assessed as inhibition of cell growth by MTT assay; format: toxicity, cell-based
MCF7 [7] = experiment: Upregulation of Nur77 protein expression in human MCF7 cells at 3 uM measured at 2 to 10 hrs by Western blot assay; format: functional, cell-based; conditions: time 2-10 hrs
T47D [8] = experiment: Induction of ferroptosis in human T47D cells assessed as increase in malondialdehyde level at 1.5 to 4.5 uM incubated for 24 hrs by MDA assay; format: functional, cell-based; conditions: dose 1.5-4.5 µM
[9] = Cmax in nude BALB/c mouse at 20 mg/kg, IG measured after 24 hrs; format: ADME, organism-based; conditions: in vivo, po
T47D [10] = experiment: cells; conditions: Homo sapiens, 24 h
Description: Antiproliferative activity against human T47D cells assessed as inhibition of cell growth incubated for 24 hrs by MTT assay

BT-549 = experiment: cells; conditions: Homo sapiens, BT-549, 24 h
Description: Antiproliferative activity against human BT-549 cells assessed as inhibition of cell growth incubated for 24 hrs by MTT assay

MCF7 [11] = experiment: Antiproliferative activity against human MCF7 cells assessed as inhibition of cell growth at 50 uM by MTT assay relative to control; format: functional
MCF7 [12] = experiment: Induction of ferroptosis in Nur77 knockout human MCF7 cells assessed as […] incubated for 24 hrs by Western blot analysis; format: functional, cell-based
MCF7 [13] = experiment: Anticancer activity in human MCF7 cells assessed as reduction in cell viability at 3 uM in presence of fer-1 by MTT assay; format: functional, cell-based
MCF7 [14] = experiment: Antiproliferative activity against Nur77 knockout human MCF7 cells at 3 uM incubated for 24 hrs by EdU staining based analysis; format: functional, cell-based
MCF7 [15] = experiment: Induction of ferroptosis in human MCF7 cells assessed as decrease in GPX4 expression at 3 uM incubated for 24 hrs in presence of fer-1 by Western blot analysis; format: functional, cell-based
MCF7 [16] = experiment: Cytotoxicity in Nur77 knockout human MCF7 cells at 1 to 3 uM incubated for 24 hrs by MTT assay; format: functional, cell-based; conditions: dose 1-3 µM
HCT-116 = experiment: Antiproliferative activity against human HCT-116 cells assessed as inhibition of cell growth by MTT assay
MCF7 [17] = experiment: Induction of ferroptosis in human MCF7 cells assessed as effect on SLC7A11 expression at 3 uM incubated for 24 hrs in presence of fer-1 by Western blot analysis; format: functional, cell-based
MCF7 [18] = experiment: Induction of ferroptosis in human MCF7 cells assessed as accumulation of lipid peroxidation at 3 uM incubated for 24 hrs by BODIPYTM 581/591C11 probe based inverted fluorescence microscopic analysis; format: functional, cell-based
HepG2 [19] = experiment: Antiproliferative activity against human HepG2 cells assessed as inhibition of cell growth by MTT assay
MCF7 [20] = experiment: Induction of apoptosis in human MCF7 cells assessed as viable cells at 3 uM incubated for 24 hrs by Annexin V-FITC/PI staining based flow cytometry analysis (reference value: 98.1%); format: functional; conditions: read-out: Activity
[21] = Toxicity in nude BALB/c mouse xenografted with human MCF7 cells assessed as appearance of intact hepatic lobules with central veins and cords of radiating hepatocytes at 10 to 20 mg/kg/day, IG administered on alternative days for 21 days by H and E staining analysis; format: organism-based; conditions: in vivo, po, 504 h, dose 10-20 mg/kg/day, time 21 day
MCF7 [22] = experiment: Induction of apoptosis in human MCF7 cells assessed as necrotic cells at 3 uM incubated for 24 hrs by Annexin V-FITC/PI staining based flow cytometry analysis (Rvb =0.2%); format: functional
MCF7 [23] = experiment: Induction of apoptosis in human MCF7 cells assessed as early apoptotic cells at 6 uM incubated for 24 hrs by Annexin V-FITC/PI staining based flow cytometry analysis (Rvb =0.82%); format: functional
MCF7 [24] = experiment: Induction of apoptosis in human MCF7 cells assessed as late apoptotic cells at 6 uM incubated for 24 hrs by Annexin V-FITC/PI staining based flow cytometry analysis (Rvb =0.86%); format: functional
MCF7 [25] = experiment: Induction of apoptosis in human MCF7 cells assessed as necrotic cells at 6 uM incubated for 24 hrs by Annexin V-FITC/PI staining based flow cytometry analysis (Rvb =0.2%); format: functional
MCF7 [26] = experiment: Induction of apoptosis in human MCF7 cells assessed as viable cells at 6 uM incubated for 24 hrs by Annexin V-FITC/PI staining based flow cytometry analysis (reference value: 98.1%); format: functional; conditions: read-out: Activity
MCF7 [27] = experiment: Induction of ferroptosis in human MCF7 cells assessed as increase in malondialdehyde level at 1.5 to 4.5 uM incubated for 24 hrs by MDA assay; format: functional, cell-based; conditions: dose 1.5-4.5 µM
HepG2 [28] = experiment: Induction of ferroptosis in Nur77 knockout human HepG2 cells assessed as increase in GPX4 expression at 3 uM incubated for 24 hrs by Western blot analysis; format: functional, cell-based
MCF7 [29] = experiment: Antitumor activity against human MCF7 cells xenografted in nude BALB/c mouse assessed as increase in Nur77 level in tumor at 10 to 20 mg/kg/day, IG administered on alternative days for 21 days by immunohistochemical analysis; format: functional, organism-based; conditions: dose 10-20 mg/kg/day, time 21.0 day
HepG2 [30] = experiment: Induction of ferroptosis in human HepG2 cells assessed as decrease in GPX4 expression at 3 uM incubated for 24 hrs by Western blot analysis; format: functional, cell-based
MCF7 [31] = experiment: Induction of ROS production in human MCF7 cells at 3 uM incubated for 24 hrs by DCFH-DA staining based flow cytometric analysis; format: functional, cell-based
MCF7 [32] = experiment: Induction of ROS production in Nur77 knockout human MCF7 cells at 3 uM incubated for 24 hrs by DCFH-DA staining based flow cytometric analysis; format: functional, cell-based
[33] = AUC (0 to infinity) in nude BALB/c mouse at 20 mg/kg, IG measured after 24 hrs; format: ADME, organism-based; conditions: in vivo, po
MCF7 [34] = experiment: Antitumor activity against human MCF7 cells xenografted in nude BALB/c mouse assessed as tumor growth inhibition at 20 mg/kg/day, IG administered on alternative days for 21 days relative to control; format: functional; conditions: MCF7, po, 504 h, time 21 day, read-out: TGI
[35] = Cytotoxicity in HaCaT cells assessed as inhibition of cell growth by MTT assay; format: toxicity, cell-based; conditions: human
[36] = Toxicity in nude BALB/c mouse xenografted with human MCF7 cells assessed as change in body weight at 10 to 20 mg/kg/day, IG administered on alternative days for 21 days; format: organism-based; conditions: in vivo, po, 504 h, dose 10-20 mg/kg/day, time 21 day
MCF7 [37] = experiment: Induction of ferroptosis in Nur77 knockout human MCF7 cells assessed as accumulation of lipid peroxidation at 3 uM incubated for 24 hrs by BODIPYTM 581/591C11 probe based inverted fluorescence microscopic analysis; format: functional, cell-based
MCF7 [38] = experiment: Antitumor activity against human MCF7 cells xenografted in nude BALB/c mouse assessed as tumor growth inhibition at 10 mg/kg/day, IG administered on alternative days for 21 days relative to control; format: functional; conditions: MCF7, po, 504 h, time 21 day, read-out: TGI
MDA-MB-231 = experiment: cells; conditions: Homo sapiens, MDA-MB-231, 24 h
Description: Antiproliferative activity against human MDA-MB-231 cells assessed as inhibition of cell growth incubated for 24 hrs by MTT assay

MCF7 [39] = experiment: cells; conditions: Homo sapiens, MCF7, 24 h
Description: Antiproliferative activity against human MCF7 cells assessed as inhibition of cell growth incubated for 24 hrs by MTT assay

MCF7 [40] = experiment: Upregulation of Nur77 protein expression in human MCF7 cells at 3 to 6 uM measured at 2 hrs by Western blot assay; format: functional, cell-based; conditions: dose 3-6 µM
MCF7 [41] = experiment: Induction of apoptosis in human MCF7 cells assessed as early apoptotic cells at 3 uM incubated for 24 hrs by Annexin V-FITC/PI staining based flow cytometry analysis (Rvb =0.82%); format: functional
MCF7 [42] = experiment: Induction of apoptosis in human MCF7 cells assessed as late apoptotic cells at 3 uM incubated for 24 hrs by Annexin V-FITC/PI staining based flow cytometry analysis (Rvb =0.86%); format: functional

O=C(Nc1ccc(C(=O)N/N=C/c2cccc(Cl)c2)cc1)Nc1ccc2ncccc2c1
half-life [1]: 1.49 h | Activity (MCF7 [2]): Active | Activity (MCF7 [3]): Active | inhibition at 4.5 µM (MCF7 [4]): 100% | Activity (MCF7 [5]): Active | pIC50 [6]: < 4.30 | Activity (MCF7 [7]): inactive | Activity (T47D [8]): Active | Cmax [9]: 37.5 ng/mL | pIC50 (T47D [10]): 5.25 | pIC50 (BT-549): 5.41 | inhibition at 50 µM (MCF7 [11]): 81% | Activity (MCF7 [12]): Active | Activity (MCF7 [13]): Active | Activity (MCF7 [14]): Active; Compound Showed Weak Activity Compared To Wild-Type Cells | Activity (MCF7 [15]): Active | Activity (MCF7 [16]): Active; Compound Showed Weak Activity Compared To Wild-Type Cells | pIC50 (HCT-116): 5.49 | Activity (MCF7 [17]): Active | Activity (MCF7 [18]): Active | pIC50 (HepG2 [19]): 5.67 | viability at 3 µM (MCF7 [20]): 97.3% | Activity [21]: Non-toxic | Activity (MCF7 [22]): 0.27% | Activity (MCF7 [23]): 1.29% | Activity (MCF7 [24]): 4.1% | Activity (MCF7 [25]): 0.34% | viability at 6 µM (MCF7 [26]): 94.3% | Activity (MCF7 [27]): Active | Activity (HepG2 [28]): Active | Activity (MCF7 [29]): Active | Activity (HepG2 [30]): Active | Activity (MCF7 [31]): Active | Activity (MCF7 [32]): inactive | AUC(0-inf) [33]: 58.8 ng·h/mL | inhibition in vivo at 20 mg/kg/day (MCF7 [34]): 49% | pIC50 [35]: < 4.30 | Activity [36]: Non-toxic | Activity (MCF7 [37]): inactive | inhibition in vivo at 10 mg/kg/day (MCF7 [38]): 43.5% | pIC50 (MDA-MB-231): 5.50 | pIC50 (MCF7 [39]): 5.64 | Activity (MCF7 [40]): Active | Activity (MCF7 [41]): 0.8% | Activity (MCF7 [42]): 1.65%
